How the values were obtained:
BcGalB [1] = target: T1, BcGalB (Heyndrickxia coagulans, UniProt G2TH90); test: release of ortho-nitrophenol at […] nm, non-linear regression; type: biochemical; conditions: 100 mM sodium citrate pH 5.0, 60 °C
T1 construct: recombinant in E. coli Rosetta(DE3) pLysS, pET28b, C-terminal His-tag, ~75 kDa monomer, hexamer in solution

BcGalB [2] = target: T1, BcGalB; test: inhibition of ONP-β-gal hydrolysis; type: biochemical; conditions: 0-100 mM sugar, 5 min preincubation, standard assay 10 mM ONP-β-gal, 100 mM sodium citrate pH 5.0, 60 °C
[3] = target: B. coagulans MA-13 β-galactosidase expressed in E. coli (BcGalB) (Bacillus coagulans MA-13); test: SEC-MALS; S200 16/60 column with Mini DAWN Treos light scattering and QELS; 1 mg protein at 1 mg/ml; 0.5 ml/min; 100 mM sodium phosphate pH 8.0, 1 mM DTT; data not shown

## O=[N+]([O-])c1ccccc1O[C@@H]1O[C@H](CO)[C@H](O)[C@H](O)[C@H]1O [ONP-β-gal]
BcGalB [1]
  Km: 723 µM

## OC1OC[C@@H](O)[C@H](O)[C@H]1O (stereo partly drawn) [D-xylose]
BcGalB [2]; highest concentration 100 mM, at least 66% retained
  retained activity at the highest concentration: > 66%

## OC1OC[C@@H](O)[C@@H](O)[C@@H]1O (stereo partly drawn) [D-arabinose]
BcGalB [2]
  retained activity at the highest concentration: > 66%

## B. coagulans MA-13 β-galactosidase expressed in E. coli (BcGalB) (enzyme)
[3]
  stoichiometry N: 6

Reference: PMC7977261, “Prebiotic properties of Bacillus coagulans MA-13: production of galactoside hydrolyzing enzymes and characterization of the transglycosylation properties of a GH42 β-galactosidase” (Microbial Cell Factories, 2021)
